The source of these data is patent publication US20240139167A1, “LYSOSOME-ASSOCIATED MEMBRANE PROTEIN TARGETING COMPOUNDS AND USES THEREOF” (HADASIT MEDICAL RESEARCH SERVICES AND DEVELOPMENT LTD., priority 2021, published 2024).

Data set [1] in a line: Safety assessment in wild type mice, 3 months. Type of data set: in vivo. Here is the method: FIG. 10 includes a graph of the body weights of wild type C57B16J mice treated with Compound 1 for 3 months. Mice were injected twice a week with 150 μL of Compound 1 at 250 mg/kg in 5% DMSO, or an equal volume of 5% DMSO (V, vehicle) control. Injections were intravenous for the first month and then subcutaneously for the following 2 months;
FIG. 11 includes images of brain, liver, skeletal muscle, and heart tissue slices of wild type C57B16J mice treated for 3 months with Compound 1. The slices were stained by H&E staining in order to visualize lesions. No lesions were apparent in either treatment. Scale bars, 500 μm (brain), 100 μm (liver), 200 µm (muscle), 100 μm (heart).
The inventors have tested Compound 1 (FIG. 1A) for its capacity to correct the deficient motor phenotypes and short lifespan in the APBD mouse model Gbe^ys/ys. Compound 1 is one of 19 PG reducing HTS hits previously discovered by the inventors. It was selected by in silico ADMET (Absorption, Distribution, Metabolism, Excretion, and Toxicity) tests run on these hits to predict which of them should be safe and pharmacokinetically and pharmacodynamically preferred and is therefore worth further pursuit (FIG. 8, compound “A”). […] Following 1 h and 24 h treatments, mice were also examined for abnormal spontaneous behavior, such as immobility, excessive running, stereotyped movements, and abnormal posture (Irwin tests).

Data set [2] relates to APBD and HC skin fibroblasts. Nature of the data set: Image-based phenotyping (IBP). The class given is cell-based, human. The text has this:
FIGS. 7A-7F include graphs of IBP parameters in HC and APBD fibroblasts and variable importance plot as an output of the random forest classification performed on the different variables (cell features) indicated on the x-axis. […] The different comparisons analyzed (comp A=Compound 1) are shown (7B); bar graphs of lysosomal parameters affected by Compound 1 in APBD and HC cells as analyzed by IBP (7C); Volcano plots of the proteins affected by APBD and Compound 1 under starvation and glycogen burden conditions (7D); Venn diagrams of proteins down-modulated by APBD and up modulated by Compound 1 and vice versa under starvation (48) and glycogen burden (48+24) conditions (7E); and gene ontology of proteins up-modulated (left) and down-modulated (right) by Compound 1 (7F).
APBD skin fibroblasts were seeded at 1,000 cells/well and cultured in specialized microscopy-grade 96-well plates (Grenier Bio-One, Germany). Following the different treatments, a mix of Thermo Scientific cellular fluorescent dyes in PBS was added to each well for 30 min at 37° C. in a 5% CO2 incubator. This mix (FIGS. 4C and 7B) included DAPI (1 μg/ml, nuclear (DNA) stain), MitoTracker Green (500 nM, potential-independent mitochondrial stain), TMRE ([…] mitochondrial stain), and Cell Mask Deep Red (0.5 μg/ml, cytosol stain). In FIG. 7C, only lysosomes were stained with LysoTracker Deep Red (75 nM). Cells were then fixed with 4% paraformaldehyde (PFA), washed with PBS and plates were transferred to an InCell2200 (GE Healthcare, U.K.) machine for image acquisition at 40× magnification. The output produced was based on comparative fluorescence intensity. Object segmentation was carried out using multi-target analysis in the GE analysis workstation to identify the nuclei and cell boundary. […]
As a first step, the inventors required a classification method, both wholistic and feature-specific, which would enable to quantify differences between APBD and HC cells and thus to estimate the restorative effect of Compound 1 on APBD cells. […]

Regarding `COCCN(Cc1sccc1C)C(=O)c1cc(C)nc(O)c1` [Compound 1], the “animals' weight gain over time” value in data set [1] (3 months at 250 mg/kg in 5% DMSO) is listed as “did not influence”. Also, the “histopathological damage or lesions in brain, liver, skeletal muscle, and heart” value in data set [1] (after 3 months exposure) is “did not produce any histopathological damage or lesions”. Also, the “IBP signature, features affected” value in data set [2] was “mostly affected nuclear and mitochondrial membrane potential (TMRE) parameters”. In data set [2] (APBD cells), the lysosomal size result is given as “reduced lysosomal size” and the “mitochondrial membrane potential (MMP)” value is “hyperpolarized”.
